Results published in ChEMBL document CHEMBL1122874, “Orally absorbable cephalosporin antibiotics. 1. Structure-activity relationships of benzothienyl- and naphthylglycine derivatives of 7-aminodeacetoxycephalosporanic acid” (1985).
Values after ≈ are worked out from the molar mass of the structure shown.

Columns and labels:
[1] = test system: Staphylococcus aureus; assay: Antibacterial activity against penicillin G sensitive Staphylococcus aureus X1.1.; type: functional
[2] = test system: Staphylococcus epidermidis; assay: Antibacterial activity against Staph. epidermis EP11; type: functional
[3] = test system: Staphylococcus aureus; assay: Antibacterial activity against methicillin resistant Staphylococcus aureus S13E.; type: functional
[4] = test system: Haemophilus influenzae; assay: Antibacterial activity against resistant Haemophilus influenzae 76.; type: functional
[5] = test system: Staphylococcus aureus; assay: Antibacterial activity against methicillin resistant Staphylococcus aureus X400; type: functional
[6] = test system: Staphylococcus aureus; assay: Antibacterial activity against penicillin G sensitive Staphylococcus aureus V41; type: functional
[7] = test system: Streptococcus pneumoniae; assay: Antibacterial activity against Streptococcus pneumoniae Park.
[8] = test system: Streptococcus pyogenes; assay: Antibacterial activity against Streptococcus pyogenes C203.; type: functional
[9] = test system: Streptococcus; assay: Antibacterial activity against Streptococcus group D X66.; type: functional
[10] = test system: Streptococcus pyogenes; assay: Antibacterial activity in mice infected with Streptococcus pyogenes C203 after oral administration; type: functional
[11] = test system: Streptococcus pneumoniae; assay: Antibacterial activity in mice infected with Streptococcus pneumoniae Park1 by subcutaneous administration; type: functional
[12] = test system: Staphylococcus aureus; assay: Antibacterial activity in mice infected with Staphylococcus aureus 3055 by subcutaneous administration; type: functional
[13] = test system: Staphylococcus aureus; assay: Antibacterial activity in mice infected with Staphylococcus aureus 3055 by oral administration; type: functional
[14] = test system: Streptococcus pyogenes; assay: Antibacterial activity in mice infected with Streptococcus pyogenes C203; type: functional
[15] = test system: Staphylococcus aureus; assay: Antibacterial activity in mice infected with Staphylococcus aureus 3055; type: functional
[16] = test system: Streptococcus pyogenes; assay: Antibacterial activity in mice infected with Streptococcus pyogenes C203 after subcutaneous administration; type: functional
[17] = test system: Streptococcus pneumoniae; assay: Antibacterial activity in mice infected with Streptococcus pneumoniae Park1 by oral administration; type: functional
[18] = test system: Haemophilus influenzae; assay: Antibacterial activity against sensitive Haemophilus influenzae C.L.; type: functional

SMILES | MIC [1] [µg/mL] | MIC [2] [µg/mL] | MIC [3] [µg/mL] | MIC [4] [µg/mL] | MIC [5] [µg/mL] | MIC [6] [µg/mL] | MIC [7] [µg/mL] | MIC [8] [µg/mL] | MIC [9] [µg/mL] | ED50 [10] [mg/kg] | ED50 [11] [mg/kg] | ED50 [12] [mg/kg] | ED50 [13] [mg/kg] | MIC [14] [µg/mL] | MIC [15] [µg/mL] | ED50 [16] [mg/kg] | ED50 [17] [mg/kg] | MIC [18] [µg/mL]
CC1=C(C(=O)O)N2C(=O)C(NC(=O)[C@H](N)c3csc4ccc(Cl)cc34)C2SC1 (stereo not given in full) | 0.5 (≈ 1.14 µM) | 4 (≈ 9.13 µM) | 2 (≈ 4.57 µM) | 0.5 (≈ 1.14 µM) | 16 (≈ 36.5 µM) | 4 (≈ 9.13 µM) | 0.25 (≈ 0.571 µM) | 0.125 (≈ 0.285 µM) | 64 (≈ 146 µM) |  |  |  |  |  |  |  |  | 
CC1=C(C(=O)O)N2C(=O)[C@@H](NC(=O)[C@H](N)c3ccccc3)[C@H]2SC1 [CEPHALEXIN ANHYDROUS] | 4 (≈ 11.5 µM) |  |  |  |  |  | 1 (≈ 2.88 µM) | 0.5 (≈ 1.44 µM) |  | 3.3 | 23 | 0.2 | 0.34 | 0.5 (≈ 1.44 µM) | 1 (≈ 2.88 µM) | 2.9 | 51 | 
CC1=C(C(=O)O)N2C(=O)C(NC(=O)[C@H](N)c3cccc4ccc(Cl)cc34)C2SC1 (stereo not given in full) | 1 (≈ 2.32 µM) | 2 (≈ 4.63 µM) | 4 (≈ 9.26 µM) | 4 (≈ 9.26 µM) | 16 (≈ 37 µM) | 4 (≈ 9.26 µM) |  | 0.25 (≈ 0.579 µM) |  |  |  |  |  |  |  |  |  | 16 (≈ 37 µM)
CC1=C(C(=O)O)N2C(=O)C(NC(=O)[C@@H](N)c3cc4c(s3)CCCC4)C2SC1 (stereo not given in full) | 0.25 (≈ 0.613 µM) | 2 (≈ 4.91 µM) | 8 (≈ 19.6 µM) | 4 (≈ 9.82 µM) |  | 16 (≈ 39.3 µM) | 0.25 (≈ 0.613 µM) | 0.06 (≈ 0.147 µM) | 64 (≈ 157 µM) |  |  |  |  |  |  |  |  | 16 (≈ 39.3 µM)
CC1=C(C(=O)O)N2C(=O)C(NC(=O)[C@H](N)c3csc4cc(Cl)c(Cl)cc34)C2SC1 (stereo not given in full) | 1 (≈ 2.12 µM) | 4 (≈ 8.47 µM) | 4 (≈ 8.47 µM) | 1 (≈ 2.12 µM) | 64 (≈ 135 µM) | 8 (≈ 16.9 µM) | 0.5 (≈ 1.06 µM) | 0.25 (≈ 0.529 µM) |  |  |  |  |  |  |  |  |  | 4 (≈ 8.47 µM)
CC1=C(C(=O)O)N2C(=O)C(NC(=O)[C@@H](N)c3cc4cc(Cl)ccc4s3)C2SC1 (stereo not given in full) | 0.25 (≈ 0.571 µM) | 2 (≈ 4.57 µM) | 16 (≈ 36.5 µM) | 4 (≈ 9.13 µM) |  | 8 (≈ 18.3 µM) | 0.25 (≈ 0.571 µM) | 0.125 (≈ 0.285 µM) |  |  |  |  |  |  |  |  |  | 64 (≈ 146 µM)
CC1=C(C(=O)O)N2C(=O)C(NC(=O)[C@H](N)c3csc4cc(F)ccc34)C2SC1 (stereo not given in full) |  | 4 (≈ 9.49 µM) | 8 (≈ 19 µM) |  |  |  | 0.5 (≈ 1.19 µM) |  | 128 (≈ 304 µM) |  |  |  |  |  |  |  |  | 
CC1=C(C(=O)O)N2C(=O)C(NC(=O)[C@H](N)c3cccc4ccccc34)C2SC1 (stereo not given in full) | 1 (≈ 2.52 µM) | 8 (≈ 20.1 µM) | 32 (≈ 80.5 µM) | 2 (≈ 5.03 µM) | 64 (≈ 161 µM) | 32 (≈ 80.5 µM) | 2 (≈ 5.03 µM) | 2 (≈ 5.03 µM) | 128 (≈ 322 µM) |  |  |  |  |  |  |  |  | 8 (≈ 20.1 µM)
CC1=C(C(=O)O)N2C(=O)C(NC(=O)[C@@H](N)c3cc4c(Cl)cccc4s3)C2SC1 (stereo not given in full) | 0.5 (≈ 1.14 µM) | 2 (≈ 4.57 µM) | 4 (≈ 9.13 µM) | 1 (≈ 2.28 µM) | 16 (≈ 36.5 µM) | 4 (≈ 9.13 µM) | 0.5 (≈ 1.14 µM) | 0.125 (≈ 0.285 µM) | 64 (≈ 146 µM) |  |  |  |  |  |  |  |  | 32 (≈ 73.1 µM)
CC1=C(C(=O)O)N2C(=O)C(NC(=O)[C@H](N)c3csc4cc(Cl)ccc34)C2SC1 (stereo not given in full) | 1 (≈ 2.28 µM) | 4 (≈ 9.13 µM) | 8 (≈ 18.3 µM) | 1 (≈ 2.28 µM) | 16 (≈ 36.5 µM) | 8 (≈ 18.3 µM) | 1 (≈ 2.28 µM) | 0.5 (≈ 1.14 µM) | 128 (≈ 292 µM) |  |  |  |  |  |  |  |  | 8 (≈ 18.3 µM)
CC1=C(C(=O)O)N2C(=O)C(NC(=O)[C@H](N)c3ccc4cccc(Cl)c4c3)C2SC1 (stereo not given in full) | 0.5 (≈ 1.16 µM) | 1 (≈ 2.32 µM) | 1 (≈ 2.32 µM) | 0.5 (≈ 1.16 µM) | 4 (≈ 9.26 µM) | 1 (≈ 2.32 µM) | 0.25 (≈ 0.579 µM) | 0.25 (≈ 0.579 µM) | 16 (≈ 37 µM) |  |  |  |  |  |  |  |  | 8 (≈ 18.5 µM)
CC1=C(C(=O)O)N2C(=O)C(NC(=O)[C@H](N)c3ccc4cc(Cl)ccc4c3)C2SC1 (stereo not given in full) | 0.25 (≈ 0.579 µM) | 4 (≈ 9.26 µM) | 8 (≈ 18.5 µM) | 2 (≈ 4.63 µM) | 64 (≈ 148 µM) | 8 (≈ 18.5 µM) | 0.25 (≈ 0.579 µM) | 0.06 (≈ 0.139 µM) | 64 (≈ 148 µM) |  |  |  |  |  |  |  |  | 32 (≈ 74.1 µM)
COc1ccc2cc([C@@H](N)C(=O)NC3C(=O)N4C(C(=O)O)=C(C)CSC34)ccc2c1 (stereo not given in full) | 0.25 (≈ 0.585 µM) | 4 (≈ 9.36 µM) | 16 (≈ 37.4 µM) | 4 (≈ 9.36 µM) | 64 (≈ 150 µM) | 16 (≈ 37.4 µM) | 0.125 (≈ 0.292 µM) | 0.125 (≈ 0.292 µM) |  |  |  |  |  |  |  |  |  | 16 (≈ 37.4 µM)
CC1=C(C(=O)O)N2C(=O)C(NC(=O)[C@H](N)c3csc4c(F)cccc34)C2SC1 (stereo not given in full) | 0.5 (≈ 1.19 µM) | 4 (≈ 9.49 µM) | 8 (≈ 19 µM) | 0.5 (≈ 1.19 µM) | 128 (≈ 304 µM) | 16 (≈ 38 µM) | 0.5 (≈ 1.19 µM) | 0.125 (≈ 0.297 µM) |  |  |  |  |  |  |  |  |  | 4 (≈ 9.49 µM)
COc1ccc2c([C@@H](N)C(=O)NC3C(=O)N4C(C(=O)O)=C(C)CSC34)csc2c1 (stereo not given in full) | 1 (≈ 2.31 µM) | 4 (≈ 9.23 µM) | 4 (≈ 9.23 µM) | 4 (≈ 9.23 µM) | 16 (≈ 36.9 µM) | 8 (≈ 18.5 µM) | 0.125 (≈ 0.288 µM) | 0.125 (≈ 0.288 µM) |  |  |  |  |  |  |  |  |  | 32 (≈ 73.8 µM)
CC1=C(C(=O)O)N2C(=O)C(NC(=O)[C@H](N)c3csc4ccc(F)cc34)C2SC1 (stereo not given in full) | 1 (≈ 2.37 µM) | 8 (≈ 19 µM) | 8 (≈ 19 µM) | 4 (≈ 9.49 µM) | 64 (≈ 152 µM) | 8 (≈ 19 µM) | 1 (≈ 2.37 µM) | 0.25 (≈ 0.593 µM) | 128 (≈ 304 µM) |  |  |  |  |  |  |  |  | 4 (≈ 9.49 µM)
